Like-named read-outs stand apart in the source and are kept apart here. Marks after values point to notes of the source that are not given here.
Tests used:
in vitro = settings: human, Caco-2
[1] = fraction absorbed, oral; cited from earlier work
[2] = test system: human intestinal epithelial Caco-2 cell monolayer; settings: apical pH 6.0 to basal pH 7.4, mean ± SD of triplicate; for Papp: Table 1 primary set; for observed Papp: Table 2 secondary set
liver (hepatotoxicity) = settings: cited from earlier work
[3] = Table 1, Hazard Evaluation Support System Integrated Platform
[4] = Table 2, Hazard Evaluation Support System Integrated Platform

Row | Compound | Papp (in vitro) | also measured
1 | COP(=O)(OC)SCn1c(=O)oc2cc(Cl)cnc21 [azamethiphos] | 40.2 ± 1.8 ×10⁻⁶ cm/s | 
2 | Cc1ccc(O)cc1 [p-cresol] | 50.7 ± 4.5 ×10⁻⁶ cm/s | 
3 | CN1C(=O)CC[C@H]1c1cccnc1 [cotinine] | 41.2 ± 2.9 ×10⁻⁶ cm/s | reported human Fa [1]: 90 [8] %
4 | CN1CCN2c3ncccc3Cc3ccccc3C2C1 (stereo not shown) [mirtazapine, reference compound] | 4.6 ± 0.3 ×10⁻⁶ cm/s | 
5 | Oc1nc2ccccc2[nH]1 [2-hydroxybenzimidazole] | 50.7 ± 1.6 ×10⁻⁶ cm/s | 
6 | CC[C@H](C)C(=O)O[C@H]1C[C@@H](C)C=C2C=C[C@H](C)[C@H](CC[C@@H]3C[C@@H](O)CC(=O)O3)[C@H]21 [lovastatin, reference compound] | 2.1 ± 0.1 ×10⁻⁶ cm/s | reported human Fa [1]: 31 [7] %
7 | O=C(O)CNC(=O)c1ccccc1 [hippuric acid] | 0.6 ± 0.1 ×10⁻⁶ cm/s | 
8 | N#Cc1cccc(C#N)c1 [isophthalonitrile] |  | Papp [2]: 805 ± 8 ^a nm/s; hepatic NOEL (liver (hepatotoxicity); [3]): 8 mg/kg/day
9 | CC(=O)Nc1ccc(O)cc1 [acetaminophen, reference compound] | 31.9 ± 1.4 ×10⁻⁶ cm/s | hepatic NOEL (liver (hepatotoxicity); Table 2): 250 [11] mg/kg/day; reported human Fa [1]: 100 [23] %
10 | CNCC[C@@H](Oc1ccccc1C)c1ccccc1 [atomoxetine, reference compound] | 2.7 ± 0.1 ×10⁻⁶ cm/s | reported human Fa [1]: 100 [8] %
11 | COc1ccc2[nH]c([S+]([O-])Cc3ncc(C)c(OC)c3C)nc2c1 (stereo not shown) [omeprazole, reference compound] |  | reported human Fa [1]: 95 [7] %
12 | CN(C)c1ccccc1 [N,N-dimethylaniline] | 99.9 ± 12.9 ×10⁻⁶ cm/s | 
13 | CCOc1ccc(N)cc1 [p-phenetidine] |  | observed Papp [2]: 58.2 ± 3.1 ×10⁻⁶ cm/s; hepatic NOEL (liver (hepatotoxicity); [4]): 160 mg/kg/day
14 | Nc1cccc(S(=O)(=O)O)c1 [3-aminobenzenesulfonic acid] | 2.1 ± 0.3 ×10⁻⁶ cm/s | 
15 | Cc1ncc2n1-c1ccc(Cl)cc1C(c1ccccc1F)=NC2 [midazolam, reference compound] | 31.8 ± 1.9 ×10⁻⁶ cm/s | reported human Fa [1]: 60 [28] %
16 | Nc1cccc2c1CN(C1CCC(=O)NC1=O)C2=O (stereo not shown) [lenalidomide, reference compound] | 0.7 ± 0.1 ×10⁻⁶ cm/s | reported human Fa [1]: 90 [26] %
17 | CCOc1ccc2ccc(=O)oc2c1 [7-ethoxycoumarin] | 75 ± 4.8 ×10⁻⁶ cm/s | 
18 | CC(C)N(CCC(C(N)=O)(c1ccccc1)c1ccccn1)C(C)C (stereo not shown) [disopyramide, reference compound] | 1.4 ± 0.3 ×10⁻⁶ cm/s | reported human Fa [1]: 83 [7] %
19 | CN/C(=N/CCSCc1nc[nH]c1C)NC#N [cimetidine, reference compound] | 1.7 ± 0.2 ×10⁻⁶ cm/s | reported human Fa [1]: 68 [7] %
20 | Nc1ccccc1-c1ccccc1 [2-aminobiphenyl] | 57.6 ± 1.1 ×10⁻⁶ cm/s | hepatic NOEL (liver (hepatotoxicity); [3]): 100 mg/kg/day
21 | Cc1ccc(N)c(C)c1 [2,4-dimethylaniline] | 66.1 ± 2 ×10⁻⁶ cm/s | hepatic NOEL (liver (hepatotoxicity); [3]): 2 mg/kg/day

Row | Compound | Papp (in vitro) | also measured
22 | Cc1cc(N)c(S(=O)(=O)O)cc1Cl [5-amino-2-chlorotoluene-4-sulfonic acid] | 2 ± 0.2 ×10⁻⁶ cm/s | hepatic NOEL (liver (hepatotoxicity); [3]): 1000 mg/kg/day
23 | CCCCNC(=O)NS(=O)(=O)c1ccc(C)cc1 [tolbutamide, reference compound] | 122 ± 11 ×10⁻⁶ cm/s | 
24 | CCNc1ccccc1 [N-ethylaniline] | 66 ± 1 ×10⁻⁶ cm/s | hepatic NOEL (liver (hepatotoxicity); [3]): 5 mg/kg/day
25 | Cc1cccc(O)c1 [m-cresol] | 85.1 ± 3.5 ×10⁻⁶ cm/s | hepatic NOEL (liver (hepatotoxicity); [3]): 100 mg/kg/day
26 | CN(C)CCCOc1nn(Cc2ccccc2)c2ccccc12 [benzydamine, reference compound] | 1.6 ± 0.1 ×10⁻⁶ cm/s | 
27 | O=c1ccc2ccc(O)cc2o1 [7-hydroxycoumarin] | 103 ± 17 ×10⁻⁶ cm/s | 
28 | Oc1ccc(Cl)cc1 [4-chlorophenol] | 43.1 ± 3.7 ×10⁻⁶ cm/s | 
29 | Cc1cccc(Nc2ccccc2C(=O)O)c1C [mefenamic acid, reference compound] | 180 ± 8.3 ×10⁻⁶ cm/s | 
30 | Oc1ccccc1-c1ccccc1 [2-hydroxybiphenyl] | 33.4 ± 2.9 ×10⁻⁶ cm/s | 
31 | N#Cc1cccnc1 [3-cyanopyridine] | 56.9 ± 7 ×10⁻⁶ cm/s | hepatic NOEL (liver (hepatotoxicity); [3]): 5 mg/kg/day
32 | CCC(C)c1ccc(O)cc1 (stereo not shown) [4-sec-butylphenol] | 40.2 ± 1.9 ×10⁻⁶ cm/s | 
33 | CN(Cc1cnc2nc(N)nc(N)c2n1)c1ccc(C(=O)N[C@@H](CCC(=O)O)C(=O)O)cc1 [methotrexate, reference compound] | 1.1 ± 0.2 ×10⁻⁶ cm/s | reported human Fa [1]: 20 [24] %
34 | Oc1ccc(Cc2ccc(O)cc2)cc1 [bisphenol F] |  | observed Papp [2]: 41.5 ± 2.1 ×10⁻⁶ cm/s; hepatic NOEL (liver (hepatotoxicity); [4]): 100 mg/kg/day
35 | COc1ccc(C(=O)NCc2ccc(OCCN(C)C)cc2)cc1OC [itopride, reference compound] | 1.2 ± 0.3 ×10⁻⁶ cm/s | 
36 | COc1ccc2c3c1O[C@H]1[C@@H](O)CC[C@H]4[C@@H](C2)N(C)CC[C@@]341 [dihydrocodeine, reference compound] | 2.4 ± 0.1 ×10⁻⁶ cm/s | 
37 | Nc1cccc(O)c1 [3-aminophenol] | 51.3 ± 2.3 ×10⁻⁶ cm/s | 
38 | Nc1cccc([N+](=O)[O-])c1 [3-nitroaniline] | 52 ± 5 ×10⁻⁶ cm/s | hepatic NOEL (liver (hepatotoxicity); [3]): 15 mg/kg/day
39 | CC(C)(c1ccc(O)cc1)c1ccc(O)cc1 [bisphenol A] | 32.1 ± 1.3 ×10⁻⁶ cm/s | hepatic NOEL (liver (hepatotoxicity); [3]): 200 mg/kg/day
40 | CC(C)NCC(O)COc1cccc2ccccc12 (stereo not shown) [propranolol, reference compound] | 2.9 ± 0.3 ×10⁻⁶ cm/s | 
41 | Nc1ccccc1 [aniline] | 54.4 ± 2.6 ×10⁻⁶ cm/s | 
42 | Cc1cc(C)cc(N)c1 [3,5-dimethylaniline] | 67.4 ± 11.3 ×10⁻⁶ cm/s | hepatic NOEL (liver (hepatotoxicity); [3]): 10 mg/kg/day

Row | Compound | Papp (in vitro) | also measured
43 | Sc1ncc[nH]1 [2-mercaptoimidazole] | 9.1 ± 0.3 ×10⁻⁶ cm/s | 
44 | OCCOCCN1CCN(C2=Nc3ccccc3Sc3ccccc32)CC1 [quetiapine, reference compound] | 3.8 ± 0.4 ×10⁻⁶ cm/s | reported human Fa [1]: 73 [30] %
45 | O=C(O)c1ccc(O)cc1 [p-hydroxybenzoic acid] | 60.9 ± 3 ×10⁻⁶ cm/s | 
46 | N#Cc1ccc(C#N)cc1 [terephthalonitrile] | 57.3 ± 1.3 ×10⁻⁶ cm/s | hepatic NOEL (liver (hepatotoxicity); [3]): 20 mg/kg/day
47 | CC(=O)[C@H]1CC[C@H]2[C@@H]3CCC4=CC(=O)CC[C@]4(C)[C@H]3CC[C@]12C [progesterone, reference compound] | 11.3 ± 2 ×10⁻⁶ cm/s | 
48 | CCc1cccc(O)c1 [3-ethylphenol] | 51.5 ± 5 ×10⁻⁶ cm/s | hepatic NOEL (liver (hepatotoxicity); [4]): 300 mg/kg/day
49 | O=C(O)c1ccccc1 [benzoic acid] | 149 ± 16 ×10⁻⁶ cm/s | 
50 | COCCc1ccc(OCC(O)CNC(C)C)cc1 (stereo not shown) [metoprolol, reference compound] | 3.4 ± 0.1 ×10⁻⁶ cm/s | 
51 | C[C@@H]1C[C@H]2[C@@H]3CCC4=CC(=O)C=C[C@]4(C)[C@@]3(F)[C@@H](O)C[C@]2(C)[C@@]1(O)C(=O)CO [dexamethasone, reference compound] | 9.5 ± 1.4 ×10⁻⁶ cm/s | reported human Fa [1]: 90 [8] %
52 | Cc1ccccc1O [o-cresol] | 90.5 ± 6.4 ×10⁻⁶ cm/s | 
53 | CN1CCC[C@H]1c1cccnc1 [nicotine, reference compound] | 5.7 ± 0.6 ×10⁻⁶ cm/s | reported human Fa [1]: 100 [8] %
54 | lucifer yellow [reference compound] |  | Papp [2]: 7 ± 1 nm/s; reported human Fa [1]: 0 [27] %
55 | Oc1ccccc1Cl [2-chlorophenol] | 75.2 ± 8.3 ×10⁻⁶ cm/s | hepatic NOEL (liver (hepatotoxicity); [4]): 200 mg/kg/day
56 | c1ccc(Nc2ccccc2)cc1 [diphenylamine] | 15.1 ± 1.1 ×10⁻⁶ cm/s | 
57 | O=C(O)Cc1ccccc1Nc1c(Cl)cccc1Cl [diclofenac, reference compound] | 75.6 ± 0.6 ×10⁻⁶ cm/s | reported human Fa [1]: 82 [25] %
58 | Cc1ccc(N)cc1C [3,4-dimethylaniline] | 54.1 ± 5.8 ×10⁻⁶ cm/s | hepatic NOEL (liver (hepatotoxicity); [3]): 50 mg/kg/day
59 | CC(C)NCC(O)COc1ccc(CC(N)=O)cc1 (stereo not shown) [atenolol] |  | reported human Fa [1]: 50 [7] %
60 | CC[C@H](C)C(=O)O[C@H]1C[C@H](O)C=C2C=C[C@H](C)[C@H](CC[C@@H](O)C[C@@H](O)CC(=O)O)[C@H]21 [pravastatin, reference compound] | 0.9 ± 0.1 ×10⁻⁶ cm/s | reported human Fa [1]: 13 [31] %
61 | Nc1ccc(C(=O)O)cc1 [p-aminobenzoic acid] | 58.7 ± 4 ×10⁻⁶ cm/s | 
62 | c1ccc2[nH]cnc2c1 [benzimidazole] | 73 ± 0.6 ×10⁻⁶ cm/s | 
63 | Nc1cccc2c1C(=O)N(C1CCC(=O)NC1=O)C2=O (stereo not shown) [pomalidomide, reference compound] | 46.6 ± 5.7 ×10⁻⁶ cm/s | reported human Fa [1]: 73 [29] %

Row | Compound | Papp (in vitro) | also measured
64 | CNc1ccccc1 [N-methylaniline] | 46.3 ± 5 ×10⁻⁶ cm/s | hepatic NOEL (liver (hepatotoxicity); [3]): 5 mg/kg/day
65 | CCCCOC(=O)c1ccccc1C(=O)O [monobutyl phthalate] | 31.8 ± 0.8 ×10⁻⁶ cm/s | 
66 | CN(C)C [trimethylamine] |  | Papp [2]: 33 ± 1 nm/s
67 | CC(=O)CC(c1ccccc1)c1c(O)c2ccccc2oc1=O (stereo not shown) [warfarin, reference compound] | 121 ± 5 ×10⁻⁶ cm/s | 
68 | Cc1cc2c(s1)Nc1ccccc1N=C2N1CCN(C)CC1 [olanzapine, reference compound] | 3.5 ± 0.3 ×10⁻⁶ cm/s | 
69 | Cc1cc(Cl)ccc1O [4-chloro-o-cresol] | 75.4 ± 3.9 ×10⁻⁶ cm/s | hepatic NOEL (liver (hepatotoxicity); [4]): 250 mg/kg/day
70 | CCCCC(CC)COC(=O)c1ccccc1C(=O)O (stereo not shown) [mono(2-ethylhexyl) phthalate] |  | Papp [2]: 467 ± 18 nm/s
71 | Oc1ccc(-c2ccccc2)cc1 [4-hydroxybiphenyl] | 44.1 ± 2.8 ×10⁻⁶ cm/s | 
72 | Oc1cccc(-c2ccccc2)c1 [3-hydroxybiphenyl] | 28.4 ± 2.2 ×10⁻⁶ cm/s | 
73 | Nc1ccccc1Cl [2-chloroaniline] | 89.3 ± 2.6 ×10⁻⁶ cm/s | 
74 | O=C1NC(=O)c2ccccc21 [phthalimide] | 93.3 ± 6.9 ×10⁻⁶ cm/s | 
75 | [H]/N=C(/N)c1ccc(NCc2nc3cc(C(=O)N(CCC(=O)O)c4ccccn4)ccc3n2C)cc1 [dabigatran, reference compound] | 3.8 ± 1.7 ×10⁻⁶ cm/s | 
76 | CC(C)(c1ccccc1)c1ccc(O)cc1 [4-α-cumylphenol] | 19.5 ± 3.4 ×10⁻⁶ cm/s | hepatic NOEL (liver (hepatotoxicity); [4]): 100 mg/kg/day
77 | O=C1CCC(N2C(=O)c3ccccc3C2=O)C(=O)N1 (stereo not shown) [thalidomide, reference compound] | 23.5 ± 1.9 ×10⁻⁶ cm/s | 
78 | Sc1nc2ccccc2[nH]1 [2-mercaptobenzimidazole] | 67.3 ± 1.8 ×10⁻⁶ cm/s | hepatic NOEL (liver (hepatotoxicity); [3]): 2 mg/kg/day
79 | CCc1ccc(O)cc1 [4-ethylphenol] | 43.7 ± 2.3 ×10⁻⁶ cm/s | hepatic NOEL (liver (hepatotoxicity); [4]): 100 mg/kg/day
80 | COc1cc([N+](=O)[O-])ccc1N [2-methoxy-4-nitroaniline] | 55.2 ± 7 ×10⁻⁶ cm/s | hepatic NOEL (liver (hepatotoxicity); [4]): 100 mg/kg/day
81 | Cc1cccc(N)c1C [2,3-dimethylaniline] | 62.4 ± 3 ×10⁻⁶ cm/s | hepatic NOEL (liver (hepatotoxicity); [3]): 12 mg/kg/day

Source: article PMC6976901 (Toxicology Reports, 2020)
